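Interpolation was linear, between the two tested concentrations surrounding the appropriate level; five concentrations were tested over 48 hours in 96-well plates. At the GI50, growth is halved.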 The source made the active and inactive calls. Rule as the data show it: active = GI50 up to about 1.1 µM and inactive = higher.

Among the test systems are XF498; SNB-78; DMS-273; LXFL 529; HOP-18; DLD-1; DMS-114; KM-20L2; RXF 631.
Common to all, as to assay: NCI-60 cell line screen, 48 h

Take `CCOc1ccc(C(CN2CCOCC2)C(C)=O)cc1OC` (stereo not given): the GI50 in the assay on XF498 is 25.3 µM (inactive); in the assay with SNB-78, 20.7 µM (inactive); with DMS-273 it was 11.3 µM (inactive); in the assay on LXFL 529, 4.46 µM (inactive); in the assay on HOP-18, 16.2 µM (inactive); with DLD-1, 10.6 µM (inactive). Further, the GI50 in the assay on DMS-114 is 15.7 µM (inactive); with KM-20L2, 18.8 µM (inactive).

With `CCCCCCC(O)CC[C@H]1CCC[C@@H](C)N1` (stereo not given in full), the GI50 with SNB-78 is > 100 µM (inactive); with DMS-273, > 100 µM (inactive); in the assay on LXFL 529, > 100 µM (inactive); in the assay on HOP-18, > 100 µM (inactive); in the assay with DLD-1, > 100 µM (inactive); with DMS-114, > 31.6 µM (inactive). The GI50 in the assay on KM-20L2 is > 10 µM (inactive).

Regarding `CC(=O)Nc1ccc(C(=O)N2N=C(C)/C(=C\c3c(O)ccc4ccccc34)C2=O)cc1`, the GI50 in the assay on XF498 is 28.9 µM (inactive); in the assay with SNB-78 it was > 100 µM (inactive); in the assay with DMS-273, > 100 µM (inactive); with HOP-18 it was 83 µM (inactive); with DLD-1 it was 30.4 µM (inactive); in the assay with DMS-114, 54.2 µM (inactive).

Take `Cc1cccc(NC(=O)c2cc3cc(/N=N/c4ccccc4Cl)ccc3oc2=O)c1`: the GI50 was 24.2 µM (inactive) in the assay on XF498; 59.7 µM (inactive) in the assay on SNB-78; 26.9 µM (inactive) in the assay on DMS-273; 27.2 µM (inactive) in the assay on LXFL 529; 72.9 µM (inactive) in the assay on HOP-18; 26.4 µM (inactive) in the assay with DLD-1. Also, the figures for the GI50 in the assay with DMS-114, in the assay with RXF 631 and in the assay with KM-20L2 were 22.7 µM (inactive), 25.1 µM (inactive) and > 100 µM (inactive), respectively.

Consider `O=S1(=O)OCCOS(=O)(=O)C1Cc1ccccc1`, for which the GI50 in the assay on XF498 was 19.2 µM (inactive); with SNB-78, > 100 µM (inactive); in the assay with DMS-273 it was 45.4 µM (inactive); in the assay with HOP-18, 23.5 µM (inactive); in the assay on DLD-1 it was 43 µM (inactive); with DMS-114, 38.2 µM (inactive). Besides, the GI50 with KM-20L2 was 43 µM (inactive).

With `CCOP(=O)(OCC)C1C(=O)O[C@H]2CCCC[C@@H]12` (stereo not given in full), the GI50 in the assay with XF498 was > 100 µM (inactive); in the assay with SNB-78 it was > 100 µM (inactive); with DMS-273, > 100 µM (inactive); with LXFL 529 it was > 100 µM (inactive); in the assay on HOP-18, 40.6 µM (inactive); in the assay with DLD-1 it was > 100 µM (inactive). For the same molecule, the GI50 with DMS-114 and with KM-20L2 was > 100 µM (inactive) throughout.

With `CC1=NN(C(=O)Cc2ccccc2)C(=O)/C1=C\c1ccccc1O`, the GI50 in the assay with XF498, in the assay with SNB-78, in the assay with LXFL 529, with DLD-1, in the assay on DMS-114 and in the assay on KM-20L2 was > 100 µM (inactive) each time.

Regarding `CN1CCCc2nc3ccccc3n2C1`, the GI50 in the assay with XF498, in the assay with SNB-78, in the assay with DMS-273, in the assay on LXFL 529, with HOP-18 and in the assay on DLD-1 was > 100 µM (inactive) throughout. The GI50 with DMS-114 and with KM-20L2 was > 100 µM (inactive) each time.

For the molecule `Cc1cccc(C)c1NC(=O)C(=O)C(C#N)c1ccccc1` (stereo not given), the GI50 with XF498, with SNB-78, in the assay on DMS-273, in the assay with LXFL 529, in the assay with HOP-18 and in the assay on DLD-1 was > 100 µM (inactive) in each case. Also, the GI50 in the assay with DMS-114 and with KM-20L2 was > 100 µM (inactive) each time.

As for `Cn1cc(NC(=O)c2cc(NC(=O)CCCCCCCCCCC(=O)Nc3cc(C(=O)Nc4cc(C(=O)NCCC(=N)N)n(C)c4)n(C)c3)cn2C)cc1C(=O)NCCC(=N)N`, the GI50 with XF498 was > 100 µM (inactive); with SNB-78, 46.7 µM (inactive); in the assay with DMS-273, 28.2 µM (inactive); in the assay on LXFL 529, 16.9 µM (inactive); with HOP-18, 15.2 µM (inactive); in the assay with DLD-1, 27.9 µM (inactive). The GI50 in the assay on KM-20L2 is 27 µM (inactive).

`N#C/C(=C\c1ccccc1Br)C(=O)c1ccccc1`: the GI50 in the assay with XF498 was > 50.2 µM (inactive); in the assay on SNB-78, 6.67 µM (inactive); with DMS-273, 26.8 µM (inactive); in the assay with LXFL 529, 12.3 µM (inactive); with DMS-114, 97.1 µM (inactive); with RXF 631, > 100 µM (inactive). Further, in the assay on KM-20L2, the GI50 was > 87.3 µM (inactive).

Regarding `CC1=CC(N2C(=O)C(C)=CC2O)NC1=O` (stereo not given), the GI50 in the assay with SNB-78 is > 100 µM (inactive); with LXFL 529, > 100 µM (inactive); in the assay on HOP-18 it was < 0.01 µM (active); in the assay with DLD-1 it was > 100 µM (inactive); in the assay with KM-20L2 it was > 100 µM (inactive).

In the case of `Cc1cc(N(CCC#N)CCC#N)ccc1/C=C1/CN(N2C(=O)/C(=C/c3ccc(N(CCC#N)CCC#N)cc3C)N=C2c2ccccc2)C(c2ccccc2)=N1`, the GI50 with XF498 is 36 µM (inactive); in the assay on SNB-78, 32.1 µM (inactive); in the assay with DMS-273 it was > 100 µM (inactive); with LXFL 529, 63.5 µM (inactive); in the assay with HOP-18, > 100 µM (inactive); in the assay on DLD-1, > 100 µM (inactive). For the same molecule, the GI50 in the assay with DMS-114 and in the assay on KM-20L2 was > 100 µM (inactive) in each case.

As for `COC(=O)C1CCc2nnc(-c3ccccc3)n21` (stereo not given), the GI50 in the assay on XF498 was > 100 µM (inactive); in the assay with SNB-78 it was > 100 µM (inactive); with DMS-273 it was > 10 µM (inactive); in the assay with LXFL 529, > 100 µM (inactive); in the assay on DLD-1, > 100 µM (inactive); with DMS-114, > 100 µM (inactive). Also, the GI50 in the assay on KM-20L2 is > 100 µM (inactive).

In the case of `CN1c2ccccc2N(C(=O)c2ccc(Cl)cc2)C(CC(=O)O)c2cccn21` (stereo not given), the GI50 in the assay with XF498, in the assay on SNB-78, in the assay with DMS-273, in the assay on LXFL 529, with DLD-1 and in the assay with DMS-114 was > 100 µM (inactive) each time. Also, the GI50 with KM-20L2 is > 100 µM (inactive).

On to `O=c1nc(/C=C/c2ccccc2Cl)cc2n1CCN2CCO`, for which the GI50 was 55.1 µM (inactive) in the assay with LXFL 529, > 100 µM (inactive) in the assay on DLD-1 and 24.8 µM (inactive) in the assay on DMS-114.

As to `CCC(=O)C(C)C(=O)C(=O)C(=O)OC` (stereo not given), the GI50 with XF498, with SNB-78, in the assay with DMS-273, in the assay on LXFL 529, in the assay on HOP-18 and in the assay on DLD-1 was > 100 µM (inactive) throughout. The GI50 with DMS-114 was > 82.8 µM (inactive); in the assay with RXF 631 it was > 100 µM (inactive); with KM-20L2, > 100 µM (inactive).

On to `COc1nc2c(nc(N)n2C2OCC(O)C(O)C2O)c(=O)n1C` (stereo not given), for which the GI50 is 41.8 µM (inactive) with XF498; > 100 µM (inactive) with SNB-78; > 100 µM (inactive) with LXFL 529; > 100 µM (inactive) in the assay on HOP-18; > 100 µM (inactive) with DLD-1; > 100 µM (inactive) in the assay on DMS-114. In addition, the GI50 in the assay with KM-20L2 was > 100 µM (inactive).

For `CCCOc1ccc(/C(Cl)=C(\C=O)c2ccc(OC)c(OC)c2)cc1OCCC`, the GI50 in the assay with XF498 is 6.93 µM (inactive); with SNB-78 it was 6.07 µM (inactive); in the assay on DMS-273 it was 3.72 µM (inactive); with LXFL 529, 5.74 µM (inactive); in the assay with HOP-18 it was > 100 µM (inactive); with DLD-1 it was 5.71 µM (inactive). In addition, the GI50 with DMS-114 is 3.07 µM (inactive); with KM-20L2, 89.7 µM (inactive).

With `COC1C(OC(=O)/C=C/C=C/C=C/C=C/C(=O)O)CCC2(CO2)C1C1(C)OC1CC=C(C)C` (stereo not given), the GI50 with XF498 was 30.8 µM (inactive); with SNB-78 it was 51.8 µM (inactive); in the assay on DMS-273, 32.2 µM (inactive); with HOP-18 it was 23.4 µM (inactive); in the assay on DLD-1 it was 26.7 µM (inactive); with DMS-114, 19.9 µM (inactive). Also, the GI50 in the assay with KM-20L2 is 32.1 µM (inactive).

Consider `COC(=O)CCSC(=O)Nc1ccc(/N=N/c2ccccc2)cc1`, for which the GI50 with XF498 was 37.5 µM (inactive); in the assay on SNB-78 it was > 100 µM (inactive); with DMS-273, 62.7 µM (inactive); in the assay on LXFL 529, 36.6 µM (inactive); with HOP-18, > 100 µM (inactive); in the assay with DLD-1, 52.5 µM (inactive). Further, the results for the GI50 with DMS-114, in the assay on RXF 631 and with KM-20L2 were 53.7 µM (inactive), 67.3 µM (inactive) and 22.7 µM (inactive), respectively.

As for `Brc1ccc2ns[s+]c2c1`, the GI50 is > 100 µM (inactive) in the assay with XF498; > 31.6 µM (inactive) in the assay on SNB-78; 1.95 µM (inactive) in the assay with DMS-273; 0.404 µM (active) in the assay with LXFL 529; > 47 µM (inactive) in the assay with HOP-18; 3.14 µM (inactive) in the assay on DMS-114. Further, the GI50 in the assay on RXF 631 is 5.06 µM (inactive); with KM-20L2, 0.933 µM (active).

Consider `CC1=C(N2CC2)C(=O)C(C)=C(N2CC2)C1=O`, for which the GI50 is 0.132 µM (active) in the assay on XF498; 0.836 µM (active) in the assay on SNB-78; 0.0692 µM (active) in the assay on DMS-273; 0.2 µM (active) with LXFL 529; 0.451 µM (active) with HOP-18; 0.21 µM (active) in the assay on DLD-1. Also, the figures for the GI50 in the assay with DMS-114 and with KM-20L2 were 0.129 µM (active) and 0.178 µM (active), respectively.

As for `Cc1cc(CC(=O)NCCO)n(CCO)c(=O)c1`, the GI50 in the assay with XF498, with SNB-78, in the assay on DMS-273, in the assay on LXFL 529, in the assay with HOP-18 and with DLD-1 was > 100 µM (inactive) each time. In addition, the GI50 in the assay on DMS-114 and in the assay on RXF 631 was > 100 µM (inactive) each time.

For the origin of these results see ChEMBL document CHEMBL1201862, “PubChem BioAssay data set” (2004).
